The results in this text go back to patent US20240041042A1, “1-(PYRIDYL)-5-AZINYLPYRAZOLE DERIVATIVES, AND THEIR USE FOR CONTROL OF UNDESIRED PLANT GROWTH” (Bayer Aktiengesellschaft, priority 2020, published 2024).

Holding throughout (format): in vivo
The subject of data set [1] is Abutilon theophrasti (ABUTH). The data set is described as follows: Post-emergence herbicidal action against ABUTH. The settings on record: visual rating about 3 weeks after treatment vs untreated controls (100% = plants have died, 0% = like control plants). Summed up: (§1)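 Values are percent visual activity (0% like control, 100% plants dead) after about 3 weeks in the greenhouse. Treatment: post-emergence spray at one-leaf stage, 600 l/ha spray volume, 0.5% additive, doses 320 g/ha or lower.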

Data set [2] has as its system Pharbitis purpurea (PHBPU). In words: Post-emergence herbicidal action against PHBPU. To be noted: dosage 320 g/ha. In outline:
as §1

The subject of data set [3] is Polygonum convolvulus (POLCO). In words: Post-emergence herbicidal action against POLCO. The settings on record: dosage 320 g/ha. In outline:
as §1

For data set [4], the system named is Verconica persica (VERPE). The data set is described as follows: Post-emergence herbicidal action against VERPE. The settings on record: 320 g/ha, VERPE. In outline: as §1
For data set [5], the system named is Viola tricolor (VIOTR). In words: Post-emergence herbicidal action against VIOTR. To be noted: 320 g/ha. In outline:
as §1

In data set [6] the test system is Triticum aestivum (TRZAS). To be noted: crop plant compatibility, effect vs untreated controls. Summed up: (§2)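 Percent effect on the crop was judged by eye against untreated controls, where 0% means like control and 100% means dead plants. Plants had been sprayed post-emergence at the one-leaf stage and then kept under optimum greenhouse conditions for about 3 weeks.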

In another data set the test system is Zea mays (ZEAMX). To be noted: for Post-emergence action against ZEAMX in % (crop plant compatibility): 20 g/ha, effect in comparison to untreated controls. Summed up: as §2
The next data set relates to Glycine max (GLXMA). The data set is described as follows: Post-emergence crop plant compatibility, GLXMA. The settings on record: post-emergence, 20 g/ha, effect in comparison to untreated controls. On the procedure: Seeds of monocotyledonous and dicotyledonous weeds and crop plants are placed in sandy loam in plastic or organic planting pots, covered with soil and cultivated in a greenhouse under controlled growth conditions. 2 to 3 weeks after sowing, the test plants are treated at the one-leaf stage. The compounds of the invention, formulated in the form of wettable powders (WP) or as emulsion concentrates (EC), are then sprayed onto the green parts of the plants as aqueous suspension or emulsion with addition of 0.5% additive at a water application rate of 600 l/ha (converted). After the test plants have been kept in the greenhouse under optimum growth conditions for about 3 weeks, the activity of the preparations is rated visually in comparison to untreated controls. For example, 100% activity=the plants have died, 0% activity=like control plants.
The observed effects on selected crop plants are reported here in comparison to the untreated controls (values in %). The appendices “a”, “b” and “c” give differentiation by dosage used with otherwise the same crop plants tested.

In data set [7] the test system is Alopecurus myosuroides (ALOMY). In words: Pre-emergence herbicidal action against ALOMY. The settings on record: 320 g/ha; scored visually after about 3 weeks; 100% = plants have died. In outline:
(§3)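 Seeds sown in pots and covered with soil; WP or EC formulations sprayed onto the soil surface at 600 l/ha water with 0.5% additive, at 320 g/ha or lower. Greenhouse growth for about 3 weeks, then visual scoring as % effect against untreated controls (100% = plants dead).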

The subject of data set [8] is Amaranthus retroflexus (AMARE). The data set is described as follows: Pre-emergence herbicidal action against AMARE. To be noted: 320 g/ha, visual scoring after about 3 weeks vs untreated controls. In outline: as §3
The test system of data set [9] is Digitaria sanguinalis (DIGSA). In words: Pre-emergence herbicidal action against DIGSA. Summed up:
as §3

Data set [10] deals with Echinochloa crus-galli (ECHCG). In words: Pre-emergence herbicidal action against ECHCG. The settings on record: dosage 320 g/ha. Summed up: as §3
The subject of data set [11] is Lolium rigidum (LOLRI). In words: Pre-emergence herbicidal action against LOLRI. To be noted: dosage 320 g/ha. In outline: as §3
The test system of data set [12] is Matricaria inodora (MATIN). The data set is described as follows: Pre-emergence herbicidal action against MATIN. The settings on record: dosage 320 g/ha. Summed up:
as §3

Data set [13] deals with Polygonum convolvulus (POLCO). The data set is described as follows: Pre-emergence herbicidal action against POLCO. The settings on record: dosage 320 g/ha. In outline:
as §3

Data set [14] relates to Setaria viridis (SETVI). The data set is described as follows: Pre-emergence herbicidal action against SETVI. To be noted: dosage 320 g/ha. In outline:
as §3

For data set [15], the system named is Verconica persica (VERPE). In words: Pre-emergence herbicidal action against VERPE. To be noted: dosage 320 g/ha. In outline: as §3
Data set [16] relates to Viola tricolor (VIOTR). In words: Pre-emergence herbicidal action against VIOTR. In outline:
as §3

Data set [17] deals with Oryza sativa (ORYSA). To be noted: pre-emergence, 80 g/ha, crop plant compatibility, in comparison to untreated controls. Summed up:
(§4)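 Crop injury rated visually in percent against untreated plants roughly 3 weeks after treatment (0% no effect, 100% plants dead). Compounds, as WP or EC with 0.5% additive in 600 l/ha water, were applied to the covering soil right after sowing; greenhouse growth. Suffixes a, b, c denote different dosages.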

The subject of data set [18] is Triticum aestivum (TRZAS). To be noted: pre-emergence, 80 g/ha, crop plant compatibility, in comparison to untreated controls. Summed up:
as §4

For data set [19], the system named is Amaranthus retroflexus (AMARE). The data set is described as follows: Post-emergence herbicidal action against AMARE. To be noted: 80 g/ha, visual rating about 3 weeks after treatment vs untreated controls (100% = plants have died, 0% = like control plants). In outline:
as §1

For data set [20], the system named is Echinochloa crus-galli (ECHCG). In words: Post-emergence herbicidal action against ECHCG. To be noted: dosage 80 g/ha. Summed up:
as §1

Data set [21] has as its system Lolium rigidum (LOLRI). In words: Post-emergence herbicidal action against LOLRI. The settings on record: dosage 80 g/ha. Summed up:
as §1

The subject of data set [22] is Matricaria inodora (MATIN). In words: Post-emergence herbicidal action against MATIN. The settings on record: dosage 80 g/ha. In outline:
as §1

Data set [23] concerns Setaria viridis (SETVI). In words: Post-emergence herbicidal action against SETVI. The settings on record: dosage 80 g/ha. In outline: as §1
The test system of data set [24] is Oryza sativa (ORYSA). To be noted: crop plant compatibility. Summed up:
as §2

Like-named read-outs stand apart in the source and are kept apart here.

Consider `COC(=O)CCOC(=O)COc1nn(-c2ccccn2)c(-c2ccc(F)nc2)c1C1CC1(F)F` (centres unmarked) [Example I-261], for which the “Post-emergence action against ABUTH in %” value in data set [1] (320 g/ha) came to 80%. Besides, the “Post-emergence action against PHBPU in %” value in data set [2] is 80%. The “Post-emergence action against POLCO in %” value in data set [3] was 80%. Also, the “Post-emergence action against VERPE in %” value in data set [4] was 80%. Further, the “Post-emergence action against VIOTR in %” value in the data set on Viola tricolor (VIOTR) [5] is recorded as 80%. Moreover, the “Post-emergence action against TRZAS in %” value in data set [6] (20 g/ha) and in [6] (80 g/ha) was 0% each time. Further, the “Post-emergence action against ZEAMX in % (crop plant compatibility)” value in the data set on Zea mays (ZEAMX) is recorded as 0%. The “Post-emergence action against ZEAMX in %” value in the data set with Zea mays (ZEAMX) (crop plant compatibility, 80 g/ha, effect vs untreated controls) is on record as 0%. The “Post-emergence action against GLXMA in %” value in the data set with Glycine max (GLXMA) came to 0%.

As to `O=C(O)CSc1nn(-c2ccccn2)c(-c2cncc(Cl)c2)c1Br` [Example I-126], the “Pre-emergence action against ALOMY” value in data set [7] is reported as 80%. Also, the “Pre-emergence action against AMARE in %” value in [8] came out at 100%. In addition, the “Pre-emergence action against DIGSA in %” value was found to be 90% in data set [9] (80 g/ha, visual scoring after about 3 weeks vs untreated controls) and 100% in [9] (dosage 320 g/ha). Moreover, the “Pre-emergence action against ECHCG in %” value in data set [10] amounted to 90%. In the data set with Lolium rigidum (LOLRI) [11], the “Pre-emergence action against LOLRI in %” value amounted to 100%. The “Pre-emergence action against MATIN in %” value in [12] was determined as 90%. In data set [13], the “Pre-emergence action against POLCO in %” value is 90%. For the same compound, the “Pre-emergence action against SETVI in %” value with Setaria viridis (SETVI) [14] amounted to 90%. Moreover, in data set [15], the “Pre-emergence action against VERPE in %” value was 80%. The “Pre-emergence action against VIOTR in %” value in the data set with Viola tricolor (VIOTR) [16] (320 g/ha, Viola tricolor) worked out at 100%; in the data set with Viola tricolor (VIOTR) [16] (dosage 80 g/ha) it was 100%. In addition, the “Pre-emergence action against ORYSA in %” value with Oryza sativa (ORYSA) [17] is listed as 20%. For the same compound, the “Pre-emergence action against TRZAS in %” value in data set [18] is reported as 20%. Besides, the “Post-emergence action against ABUTH in %” value in [1] (80 g/ha) is given as 80%. Besides, the “Post-emergence action against AMARE in %” value in data set [19] is given as 80%. The “Post-emergence action against ECHCG in %” value in data set [20] was 80%. Also, in the data set with Lolium rigidum (LOLRI) [21], the “Post-emergence action against LOLRI in %” value was found to be 80%. In addition, the “Post-emergence action against MATIN in %” value in data set [22] was 80%. The “Post-emergence action against SETVI in %” value in the data set on Setaria viridis (SETVI) [23] stood at 80%. The “Post-emergence action against ORYSA in %” value with Oryza sativa (ORYSA) [24] (20 g/ha, effect vs untreated controls) worked out at 0%; in the data set with Oryza sativa (ORYSA) [24] (80 g/ha, effect in comparison to untreated controls), 0%. Moreover, the “Post-emergence action against TRZAS in %” value in [6] (20 g/ha) turned out to be 20%. The “Post-emergence action against ZEAMX in % (crop plant compatibility)” value in the data set on Zea mays (ZEAMX) came out at 10%. For the same compound, the “Post-emergence action against GLXMA in %” value in the data set on Glycine max (GLXMA) is 20%.
